Legend:
Assay in all cases: relative viability (nuclei count vs DMSO), 5 days (fraction); higher = more cells survive
Doramapimod + Trametinib = compound: Cc1ccc(-n2nc(C(C)(C)C)cc2NC(=O)Nc2ccc(OCCN3CCOCC3)c3ccccc23)cc1 [Doramapimod] + CC(=O)Nc1cccc(-n2c(=O)n(C3CC3)c(=O)c3c(Nc4ccc(I)cc4F)n(C)c(=O)c(C)c32)c1 [Trametinib] (partner 0.02 µM)
Procedure, shortened: (§1)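 Medians of duplicate plates are given as relative viability. That measure is the nuclei count in treated wells divided by the count in vehicle wells. Counts were taken on 4× images of lung cancer cell lines in 1536-well plates, 5 days after pin-tool dosing the day after seeding with one drug alone or a fixed anchor-drug dose plus five library-drug doses (not always all listed) in √10 steps.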

Doramapimod + Dasatinib = compound: Cc1ccc(-n2nc(C(C)(C)C)cc2NC(=O)Nc2ccc(OCCN3CCOCC3)c3ccccc23)cc1 [Doramapimod] + Cc1nc(Nc2ncc(C(=O)Nc3c(C)cccc3Cl)s2)cc(N2CCN(CCO)CC2)n1 [Dasatinib] (partner 0.075 µM)
Procedure, shortened: as §1

IPA-3 + Lapatinib = compound: C1=CC=C2C(=C1)C=CC(=C2SSC3=C(C=CC4=CC=CC=C43)O)O [IPA-3] + CS(=O)(=O)CCNCc1ccc(-c2ccc3ncnc(Nc4ccc(OCc5cccc(F)c5)c(Cl)c4)c3c2)o1 [Lapatinib] (partner 2 µM)
Procedure, shortened: as §1

Doramapimod + Lapatinib = compound: Cc1ccc(-n2nc(C(C)(C)C)cc2NC(=O)Nc2ccc(OCCN3CCOCC3)c3ccccc23)cc1 [Doramapimod] + CS(=O)(=O)CCNCc1ccc(-c2ccc3ncnc(Nc4ccc(OCc5cccc(F)c5)c(Cl)c4)c3c2)o1 [Lapatinib] (partner 2 µM)
Procedure, shortened: as §1

Row | Cell Line | relative viability (Doramapimod + Trametinib; first compound 0.02 µM) | relative viability (Doramapimod + Trametinib; first compound 0.06325 µM) | relative viability (Doramapimod + Trametinib; first compound 0.2 µM) | relative viability (Doramapimod + Trametinib; first compound 0.6325 µM) | relative viability (Doramapimod + Trametinib; first compound 2 µM) | relative viability (Doramapimod + Dasatinib; first compound 0.02 µM) | relative viability (Doramapimod + Dasatinib; first compound 0.06325 µM) | relative viability (Doramapimod + Dasatinib; first compound 0.2 µM) | relative viability (Doramapimod + Dasatinib; first compound 0.6325 µM) | relative viability (Doramapimod + Dasatinib; first compound 2 µM) | relative viability (IPA-3 + Lapatinib; first compound 0.2 µM) | relative viability (IPA-3 + Lapatinib; first compound 0.6325 µM) | relative viability (IPA-3 + Lapatinib; first compound 2 µM) | relative viability (IPA-3 + Lapatinib; first compound 6.325 µM) | relative viability (IPA-3 + Lapatinib; first compound 20 µM) | relative viability (Doramapimod + Lapatinib; first compound 0.02 µM) | relative viability (Doramapimod + Lapatinib; first compound 0.06325 µM) | relative viability (Doramapimod + Lapatinib; first compound 0.2 µM) | relative viability (Doramapimod + Lapatinib; first compound 0.6325 µM) | relative viability (Doramapimod + Lapatinib; first compound 2 µM)
1 | NCI-H520 | 0.648 | 0.59 | 0.72 | 0.723 | 0.536 | 0.183 | 0.166 | 0.148 | 0.213 | 0.182 | 1.04 | 0.894 | 0.697 | 0.95 | 0.729 | 0.828 | 0.865 | 0.945 | 0.807 | 0.629
2 | LCLC-97TM1 | 0.169 | 0.225 | 0.249 | 0.265 | 0.204 | 0.837 | 0.87 | 0.768 | 0.699 | 0.591 | 1.14 | 1.03 | 1.13 | 0.938 | 0.937 | 0.859 | 0.792 | 1 | 1.05 | 0.853
3 | NCI-H2170 | 0.854 | 1.02 | 0.934 | 0.981 | 0.825 | 0.614 | 0.616 | 0.7 | 0.896 | 0.594 | 0.269 | 0.259 | 0.274 | 0.274 | 0.267 | 0.298 | 0.285 | 0.259 | 0.316 | 0.259
4 | NCI-H1793 | 0.418 | 0.435 | 0.408 | 0.377 | 0.406 | 0.335 | 0.379 | 0.368 | 0.36 | 0.344 | 0.834 | 0.539 | 0.909 | 0.776 | 0.702 | 0.514 | 0.89 | 0.515 | 0.678 | 0.82
5 | NCI-H3122 | 0.26 | 0.206 | 0.216 | 0.219 | 0.279 | 0.762 | 0.779 | 0.78 | 0.936 | 0.727 | 1.02 | 0.996 | 0.993 | 1.09 | 0.946 | 1.02 | 0.962 | 0.974 | 1.08 | 0.932
6 | PC-14 | 0.756 | 0.864 | 0.782 | 0.856 | 0.619 | 0.282 | 0.274 | 0.28 | 0.341 | 0.243 | 0.419 | 0.331 | 0.328 | 0.328 | 0.407 | 0.292 | 0.322 | 0.346 | 0.425 | 0.319
7 | EPLC-272H | 0.25 | 0.294 | 0.302 |  | 0.291 | 0.438 | 0.326 | 0.435 | 0.479 | 0.332 | 1.01 | 1.01 | 0.915 | 0.881 | 1.04 | 0.942 | 0.983 | 0.945 | 0.979 | 0.745
8 | A-427 | 0.763 | 0.714 | 0.79 |  | 0.619 | 0.728 | 0.768 | 0.733 |  | 0.672 | 1.17 | 0.997 | 0.981 | 1.09 | 1.2 | 1.03 | 1.17 | 1.09 |  | 1.04

— the supplement of paper PMC10307832
